This passage reports solubility in water results from US5200505A, “R106 compounds” (Takara Shuzo Co., Ltd., priority 1990, dated 1993).

Structures are written as SMILES. Numbered stars: 1 amine (or outer) side, 2 acyl side, 3 side chain; on linkers, the order of the positions; unused ones are H or OH. Square brackets hold non-standard residues; d marks the D form. Peptide text beside a SMILES is read from it. NMePhe(3-F) = CN[C@@H](Cc1cccc(F)c1)C(=O)O; NMePhe(2-F) = CN[C@@H](Cc1ccccc1F)C(=O)O; NMeVal(β-OH) = CN[C@H](C(=O)O)C(C)(C)O; Phe(3-F) = N[C@@H](Cc1cccc(F)c1)C(=O)O; Phe(2-F) = N[C@@H](Cc1ccccc1F)C(=O)O; NMeY = CN[C@@H](Cc1ccc(O)cc1)C(=O)O; NMeF = CN[C@@H](Cc1ccccc1)C(=O)O; aIle = CC[C@@H](C)[C@H](N)C(=O)O; X1 = CCC(C)C(O[*:1])C(=O)[*:2]; NMeV = CN[C@H](C(=O)O)C(C)C; NMeS = CN[C@@H](CO)C(=O)O; Thz = O=C(O)[C@@H]1CSCN1

The series in a line: Solubility in water. The class given is physicochemical. Conditions: compared with antibiotics R106.
Turning to `CCC(C)C1OC(=O)[C@H](C(C)(C)O)N(C)C(=O)[C@H](CC(C)C)NC(=O)[C@H](C(C)C)N(C)C(=O)[C@H]([C@H](C)CC)NC(=O)[C@@H]2CCCN2C(=O)[C@H](Cc2ccccc2F)N(C)C(=O)[C@H](Cc2ccccc2F)NC(=O)[C@H](C(C)C)N(C)C1=O` (stereo partly drawn) [Compound 1] (cyclo(L[NMeVal(β-OH)][X1][NMeV][Phe(2-F)][NMePhe(2-F)]P[aIle][NMeV])), the solubility in water result is “higher”.
The same measure for `CCC(C)C1OC(=O)[C@H](C(C)(C)O)N(C)C(=O)[C@H](CC(C)C)NC(=O)[C@H](C(C)C)N(C)C(=O)[C@H]([C@H](C)CC)NC(=O)[C@@H]2CCCN2C(=O)[C@H](Cc2cccc(F)c2)N(C)C(=O)[C@H](Cc2cccc(F)c2)NC(=O)[C@H](C(C)C)N(C)C1=O` (stereo partly drawn) [Compound 2] (cyclo(L[NMeVal(β-OH)][X1][NMeV][Phe(3-F)][NMePhe(3-F)]P[aIle][NMeV])): “higher”; for `CCC(C)C1OC(=O)[C@H](C(C)(C)O)N(C)C(=O)[C@H](CC(C)C)NC(=O)[C@H](C(C)C)N(C)C(=O)[C@H]([C@H](C)CC)NC(=O)[C@@H]2CCCN2C(=O)[C@H](Cc2ccc(O)cc2)N(C)C(=O)[C@H](Cc2ccc(O)cc2)NC(=O)[C@H](C(C)C)N(C)C1=O` (stereo partly drawn) [Compound 3] (cyclo(L[NMeVal(β-OH)][X1][NMeV]Y[NMeY]P[aIle][NMeV])): “higher”; for `CCC(C)C1OC(=O)[C@H](C(C)(C)O)N(C)C(=O)[C@H](CC(C)C)NC(=O)[C@H](C(C)C)N(C)C(=O)[C@H]([C@H](C)CC)NC(=O)[C@@H]2CSCN2C(=O)[C@H](Cc2ccccc2)N(C)C(=O)[C@H](Cc2ccccc2)NC(=O)[C@H](C(C)C)N(C)C1=O` (stereo partly drawn) [Compound 5] (cyclo(F[NMeF][Thz][aIle][NMeV]L[NMeVal(β-OH)][X1][NMeV])): “higher”.
To `CCC(C)C1OC(=O)[C@H](C(C)(C)O)N(C)C(=O)[C@H](CC(C)C)NC(=O)[C@H](C(C)C)N(C)C(=O)[C@H]([C@H](C)CC)NC(=O)[C@@H]2CCCN2C(=O)[C@H](CO)N(C)C(=O)[C@H](Cc2ccccc2)NC(=O)[C@H](C(C)C)N(C)C1=O` (stereo partly drawn) [Compound 9] (cyclo(F[NMeS]P[aIle][NMeV]L[NMeVal(β-OH)][X1][NMeV])) belongs “higher”.
